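Where inhibition never reached the appropriate level, the endpoint shown equals the highest concentration tested. Otherwise, values were interpolated linearly from a five-concentration, 48-hour dose response in 96-well plates. Here, GI50 denotes the concentration required for 50% inhibition of growth.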 The source made the active and inactive calls. Cut-off read from the data, not from the text of the source: active = GI50 up to about 1.1 µM and inactive = higher.
Tests used:
Test in all cases: inhibition of tumour cell growth, NCI panel, 48 h
OVCAR-3 = system: OVCAR-3
SK-MEL-28 = system: SK-MEL-28
CCRF-CEM = system: CCRF-CEM
NCI-H23 = system: NCI-H23
SW-620 = system: SW-620
Malme-3M = system: Malme-3M
COLO 205 = system: COLO 205
TK-10 = system: TK-10
SF-268 = system: SF-268
LOX IMVI = system: LOX IMVI
HT-29 = system: HT-29
786-0 = system: 786-0
UO-31 = system: UO-31
UACC-257 = system: UACC-257
UACC-62 = system: UACC-62
NCI-H226 = system: NCI-H226
HCT-15 = system: HCT-15
KM12 = system: KM12
HOP-92 = system: HOP-92
MDA-MB-435 = system: MDA-MB-435
SN12C = system: SN12C
MOLT-4 = system: MOLT-4
MCF7 = system: MCF7
A549 = system: A549
HL-60 = system: HL-60
U-251 = system: U-251
SF-295 = system: SF-295
PC-3 = system: PC-3
Hs-578T = system: Hs-578T
M14 = system: M14
SK-MEL-2 = system: SK-MEL-2
OVCAR-5 = system: OVCAR-5
RXF 393 = system: RXF 393
EKVX = system: EKVX
T47D = system: T47D
NCI/ADR-RES = system: NCI/ADR-RES
SF-539 = system: SF-539
SK-OV-3 = system: SK-OV-3
MDA-MB-231 = system: MDA-MB-231
RPMI-8226 = system: RPMI-8226
MDA-N = system: MDA-N
ACHN = system: ACHN
HCT-116 = system: HCT-116
BT-549 = system: BT-549
OVCAR-8 = system: OVCAR-8
HOP-62 = system: HOP-62
OVCAR-4 = system: OVCAR-4
DU-145 = system: DU-145
IGROV-1 = system: IGROV-1
NCI-H460 = system: NCI-H460
SNB-75 = system: SNB-75
K562 = system: K562
SNB-19 = system: SNB-19

O=S(=O)(/N=S(/Nc1ccccc1)C(Cl)Cl)c1ccccc1 (stereo not drawn)
GI50 (OVCAR-3): > 100 µM (inactive) | GI50 (SK-MEL-28): > 100 µM (inactive) | GI50 (CCRF-CEM): > 100 µM (inactive) | GI50 (NCI-H23): > 100 µM (inactive) | GI50 (SW-620): > 100 µM (inactive) | GI50 (Malme-3M): > 100 µM (inactive) | GI50 (COLO 205): > 100 µM (inactive) | GI50 (TK-10): > 100 µM (inactive) | GI50 (SF-268): > 100 µM (inactive) | GI50 (LOX IMVI): > 100 µM (inactive) | GI50 (HT-29): > 100 µM (inactive) | GI50 (786-0): > 100 µM (inactive) | GI50 (UO-31): > 100 µM (inactive) | GI50 (UACC-257): > 100 µM (inactive) | GI50 (UACC-62): > 100 µM (inactive) | GI50 (NCI-H226): > 100 µM (inactive) | GI50 (HCT-15): > 100 µM | GI50 (KM12): > 100 µM (inactive) | GI50 (HOP-92): > 100 µM (inactive) | GI50 (MDA-MB-435): > 100 µM (inactive) | GI50 (SN12C): > 100 µM (inactive) | GI50 (MOLT-4): > 100 µM (inactive) | GI50 (MCF7): > 100 µM (inactive) | GI50 (A549): > 100 µM (inactive) | GI50 (HL-60): > 100 µM (inactive) | GI50 (U-251): > 100 µM (inactive) | GI50 (SF-295): > 100 µM (inactive) | GI50 (PC-3): > 100 µM (inactive) | GI50 (Hs-578T): > 100 µM (inactive) | GI50 (M14): > 100 µM (inactive) | GI50 (SK-MEL-2): > 100 µM (inactive) | GI50 (OVCAR-5): > 100 µM (inactive) | GI50 (RXF 393): > 100 µM (inactive) | GI50 (EKVX): > 100 µM (inactive) | GI50 (T47D): > 100 µM (inactive) | GI50 (NCI/ADR-RES): > 100 µM (inactive) | GI50 (SF-539): > 100 µM (inactive) | GI50 (SK-OV-3): > 100 µM (inactive) | GI50 (MDA-MB-231): > 100 µM (inactive) | GI50 (RPMI-8226): > 100 µM (inactive) | GI50 (MDA-N): > 100 µM (inactive) | GI50 (ACHN): > 100 µM (inactive) | GI50 (HCT-116): > 100 µM (inactive) | GI50 (BT-549): > 100 µM (inactive) | GI50 (OVCAR-8): > 100 µM (inactive) | GI50 (HOP-62): > 100 µM (inactive) | GI50 (OVCAR-4): > 100 µM (inactive) | GI50 (DU-145): > 100 µM (inactive) | GI50 (IGROV-1): > 100 µM (inactive) | GI50 (NCI-H460): > 100 µM (inactive) | GI50 (SNB-75): > 100 µM (inactive) | GI50 (K562): > 100 µM (inactive) | GI50 (SNB-19): > 100 µM (inactive)

Source: ChEMBL document CHEMBL1201862, “PubChem BioAssay data set” (2004)
